This is an account of results in publication PMC11889359, “Site-Specific Competitive Kinase Inhibitor Target Profiling Using Phosphonate Affinity Tags” (Molecular & Cellular Proteomics : MCP, 2025).

Assay [1] concerns EphA2. On the set-up: method as in PMID 29928781. Particulars: read-out: Literature value for EphA2, NanoBRET assay; cited from earlier work. Background: Bioluminescence resonance energy transfer reports proximity on the nanometre scale.
A further assay relates to DDR1. On the set-up: method as in PMID 36799129. The note with it: cited from earlier work.
The target in a further assay is T1, LYN (Homo sapiens, UniProt P07948).
T1 construct: endogenous in cells; host or cells: cultured cells treated intact (A549 per the earlier reading)
Description: Competitive site-specific PhosID-ABPP with XO44 in intact A549 cells. In kind it is binding. Particulars: apparent IC50, pepsin-based analysis, n = 3, read-out: IC50 LYN;K275. The method, then:
(§1) 1e^6 cells were plated in 15 cm plates (Greiner) 3 days before treatment and kept in a humidified atmosphere with 5% CO2 at 37 °C. The growth medium was replaced by 10 ml treatment [DMEM with 0.5% FBS and 100 units/ml PS supplemented with the corresponding concentration of NVP-BHG712 (Sigma-Aldrich) or DMSO] and incubated at 37 °C, 5% CO2 for 3 h. Then, 10 μl 25 mM XO44 (PF-6808472, Sigma-Aldrich) was added directly to the medium and swirled to enable dissolution. Subsequently, the cells were incubated at 37 °C, 5% CO2 for 4 h. The samples for Supplemental Fig. S1 were generated by directly incubating with 25 μM XO44-containing growth medium for 4 h.
(§2) After treatment, the cells were washed with ice-cold DPBS and harvested using a cell scraper in 1 ml ice-cold DPBS. Then, the cell suspension was spun down at 2000g for 1 min, and the supernatant was aspirated. The cell pellet was snap-frozen in liquid nitrogen and stored at −80 °C for later use.
(§3) Cell pellets were lysed in 500 μl lysis buffer per 15 cm plate of cells, consisting of 50 mM Hepes (Sigma-Aldrich, pH 7.5), 0.5% NP-40 (Applichem), 0.2% SDS (Gen-Apex), 2 mM MgCl2 (Sigma-Aldrich), 10 mM NaCl (Merck), 1× protease inhibitor cocktail (Roche), and 0.5 μl/ml Benzonase (Millipore). Cell lysates were incubated at room temperature for 15 min to allow DNA cleavage. Cell debris and DNA were spun down for 30 min at 20,567g at 16 °C. The supernatant was collected, and the protein concentration was determined by a bicinchoninic acid assay (Thermo Fisher Scientific).
(§4) The copper(I)-catalyzed azide-alkyne cycloaddition (CuAAC) was performed on cellular lysates in 2 M urea (Merck) in 1× 50 mM Hepes (pH 7.5). CuAAC components were added in the following order: 5 mM tris(3-hydroxypropyltriazolylmethyl)amine (Lumiprobe), 2.5 mM CuSO4 5·H2O (Sigma-Aldrich), 500 μM phosphonate-azide (prepared as described in van Bergen et al., 2023 ([28])), and 25 mM sodium ascorbate (Sigma-Aldrich). Samples were incubated for 2 h at room temperature while rotating. Methanol–chloroform precipitation was performed to remove the CuAAC components, and the air-dried pellets were resuspended in 8 M urea and sonicated in a bioruptor (Diagenode) with the high amplitude setting for 10 min with cycles of 30 s on and 30 s off.
(§5) Clicked and dissolved protein samples were diluted to 4M urea with 50 mM ammonium bicarbonate (pH 8, AmBic, Sigma-Aldrich). The proteins were reduced with 4 mM DTT (Sigma-Aldrich) for 60 minutes at room temperature and alkylated in the dark using 8 mM iodoacetamide (Sigma-Aldrich) for 30 min. Residual iodoacetamide was quenched by adding DTT to a final concentration of 4 mM.
(§6) Next, samples were diluted 2× with 50 mM AmBic and digested with LysC (1:75 enzyme to protein ratio, Wako) for 4 h at 37 °C. Finally, proteins were digested overnight using Trypsin (1:50, enzyme to protein ratio, Sigma-Aldrich) at 37 °C. Proteolysis with chymotrypsin was performed similarly to the trypsin digestion, only replacing both proteolytic enzymes with α-chymotrypsin (bovine, 1:75, enzyme to protein ratio, Sigma-Aldrich) overnight at 37 °C. Digested material was desalted using 3 cc C18 Seppak cartridges (Waters) and air dried using a vacuum centrifuge.
(§7) For the digestion with pepsin, protease incubation (Porcine, 1:50, enzyme to protein ratio, Sigma-Aldrich) was performed for 4 h at 37 °C in 40 mM HCl (pH 2). Digested material was directly desalted using 3 cc C18 Seppak cartridges and air dried using a vacuum centrifuge.
(§8) Samples were dephosphorylated prior to immobilized metal affinity chromatography (IMAC) enrichment. Desalted peptides were dissolved in 1× rCutSmart buffer (pH 8, New England BioLabs) and incubated with 50 units of alkaline phosphatase (calf intestinal, QuickCIP, New England BioLabs) overnight at 37 °C while shaking. After dephosphorylation, all peptides were again desalted using 3 cc C18 Seppak cartridges and air-dried using a vacuum centrifuge. […]

Assay [2] addresses T2, proto-oncogene tyrosine-protein kinase src (SRC) (Homo sapiens, UniProt P12931).
T2 construct: endogenous in cells; host or cells: cultured cells treated intact (A549 per the earlier reading)
Described as above. The note with it: 0.1 nM to 25 µM inhibitor, trypsin and pepsin. In kind it is binding. The method, then: as §1, §2, §3, §4, §5, §6, §7, §8

Assay [3] concerns the target T3, EphA2 (Homo sapiens, UniProt P29317).
T3 construct: endogenous in cells; host or cells: cultured cells treated intact (A549 per the earlier reading)
The assay is described as above. It is filed as binding. The note with it: apparent IC50, 3 h inhibitor then 25 μM XO44 4 h. How it is done:
as §1, §2, §3, §4, §5, §6, §7, §8

Assay [4] deals with T4, cyclin G–associated kinase (GAK) (Homo sapiens, UniProt O14976).
T4 construct: endogenous in cells; host or cells: cultured cells treated intact (A549 per the earlier reading)
T4 sequence (O14976 1-1311): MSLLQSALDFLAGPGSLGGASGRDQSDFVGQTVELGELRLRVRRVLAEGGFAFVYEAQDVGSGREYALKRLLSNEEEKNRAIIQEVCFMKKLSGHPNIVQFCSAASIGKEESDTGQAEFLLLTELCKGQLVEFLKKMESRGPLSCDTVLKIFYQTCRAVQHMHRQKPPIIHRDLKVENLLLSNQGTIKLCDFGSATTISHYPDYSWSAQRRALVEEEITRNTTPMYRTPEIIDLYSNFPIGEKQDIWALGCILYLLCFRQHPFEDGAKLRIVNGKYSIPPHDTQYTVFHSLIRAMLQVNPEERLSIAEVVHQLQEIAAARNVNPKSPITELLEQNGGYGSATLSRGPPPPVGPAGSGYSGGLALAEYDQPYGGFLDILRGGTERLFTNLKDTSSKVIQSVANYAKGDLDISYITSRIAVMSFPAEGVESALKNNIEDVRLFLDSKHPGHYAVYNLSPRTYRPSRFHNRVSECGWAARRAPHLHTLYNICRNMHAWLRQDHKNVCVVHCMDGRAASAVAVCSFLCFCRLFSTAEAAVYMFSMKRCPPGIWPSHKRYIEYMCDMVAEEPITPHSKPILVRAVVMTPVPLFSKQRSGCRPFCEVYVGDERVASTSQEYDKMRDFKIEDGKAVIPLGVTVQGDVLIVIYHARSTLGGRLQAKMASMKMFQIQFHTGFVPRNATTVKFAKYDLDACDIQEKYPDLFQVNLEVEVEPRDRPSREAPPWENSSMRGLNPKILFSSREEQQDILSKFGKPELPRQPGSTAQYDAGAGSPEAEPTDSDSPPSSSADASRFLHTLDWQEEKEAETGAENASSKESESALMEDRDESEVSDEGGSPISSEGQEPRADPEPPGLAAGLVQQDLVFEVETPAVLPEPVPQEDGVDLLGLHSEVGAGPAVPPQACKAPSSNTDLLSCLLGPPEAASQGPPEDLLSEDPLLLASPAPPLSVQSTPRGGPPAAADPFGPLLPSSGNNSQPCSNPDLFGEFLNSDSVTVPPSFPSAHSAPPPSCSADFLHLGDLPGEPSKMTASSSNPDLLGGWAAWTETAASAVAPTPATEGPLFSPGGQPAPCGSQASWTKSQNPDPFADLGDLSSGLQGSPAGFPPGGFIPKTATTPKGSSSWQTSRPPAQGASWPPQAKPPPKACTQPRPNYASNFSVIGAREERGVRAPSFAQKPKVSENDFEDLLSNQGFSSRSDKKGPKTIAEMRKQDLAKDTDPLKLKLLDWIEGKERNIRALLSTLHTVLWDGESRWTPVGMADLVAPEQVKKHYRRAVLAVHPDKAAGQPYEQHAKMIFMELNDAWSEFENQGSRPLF
The description is as above. In kind it is binding. The method, then: as §1, §2, §3, §4, §5, §6, §7, §8

For another assay, the target named is T5, EphB4 (Homo sapiens, UniProt P54760).
T5 construct: endogenous in cells; host or cells: cultured cells treated intact (A549 per the earlier reading)
T5 sequence (P54760 16-987): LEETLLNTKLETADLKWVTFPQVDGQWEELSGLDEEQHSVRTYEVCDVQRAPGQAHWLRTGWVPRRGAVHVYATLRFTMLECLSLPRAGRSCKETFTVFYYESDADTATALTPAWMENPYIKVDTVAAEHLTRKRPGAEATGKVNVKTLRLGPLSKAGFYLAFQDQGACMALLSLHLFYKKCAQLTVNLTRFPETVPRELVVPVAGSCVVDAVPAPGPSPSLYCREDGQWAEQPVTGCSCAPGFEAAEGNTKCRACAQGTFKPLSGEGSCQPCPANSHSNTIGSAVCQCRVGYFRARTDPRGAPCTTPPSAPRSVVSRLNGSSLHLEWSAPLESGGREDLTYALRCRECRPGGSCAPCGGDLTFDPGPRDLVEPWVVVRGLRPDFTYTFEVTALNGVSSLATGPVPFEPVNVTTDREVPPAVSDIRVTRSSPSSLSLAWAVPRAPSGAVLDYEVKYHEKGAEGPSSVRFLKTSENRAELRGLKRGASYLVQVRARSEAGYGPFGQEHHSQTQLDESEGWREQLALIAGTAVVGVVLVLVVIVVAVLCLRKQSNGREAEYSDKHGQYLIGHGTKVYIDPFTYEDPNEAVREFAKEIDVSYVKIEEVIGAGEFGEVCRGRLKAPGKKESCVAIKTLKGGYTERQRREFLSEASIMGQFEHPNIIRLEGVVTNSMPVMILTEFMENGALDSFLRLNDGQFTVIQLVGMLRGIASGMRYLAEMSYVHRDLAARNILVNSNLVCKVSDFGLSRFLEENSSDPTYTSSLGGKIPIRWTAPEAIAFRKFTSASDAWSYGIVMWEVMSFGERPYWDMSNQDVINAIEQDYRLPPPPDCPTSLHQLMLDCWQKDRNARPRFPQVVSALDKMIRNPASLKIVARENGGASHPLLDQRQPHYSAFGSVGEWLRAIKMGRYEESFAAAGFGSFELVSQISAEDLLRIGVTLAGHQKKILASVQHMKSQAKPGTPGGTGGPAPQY
The description is as above. It is filed as binding. The note with it: apparent IC50, 3 h inhibitor then 25 μM XO44 4 h, n = 3, read-out: IC50 EphB4;K647. The method, then:
as §1, §2, §3, §4, §5, §6, §7, §8

Several values for one entry are separate records, joined by “and”; a condition that tells them apart may be missing. Identical values can stand only once. Like-named read-outs stand apart in the source and are kept apart here.

T3 sequence (P29317 24-976): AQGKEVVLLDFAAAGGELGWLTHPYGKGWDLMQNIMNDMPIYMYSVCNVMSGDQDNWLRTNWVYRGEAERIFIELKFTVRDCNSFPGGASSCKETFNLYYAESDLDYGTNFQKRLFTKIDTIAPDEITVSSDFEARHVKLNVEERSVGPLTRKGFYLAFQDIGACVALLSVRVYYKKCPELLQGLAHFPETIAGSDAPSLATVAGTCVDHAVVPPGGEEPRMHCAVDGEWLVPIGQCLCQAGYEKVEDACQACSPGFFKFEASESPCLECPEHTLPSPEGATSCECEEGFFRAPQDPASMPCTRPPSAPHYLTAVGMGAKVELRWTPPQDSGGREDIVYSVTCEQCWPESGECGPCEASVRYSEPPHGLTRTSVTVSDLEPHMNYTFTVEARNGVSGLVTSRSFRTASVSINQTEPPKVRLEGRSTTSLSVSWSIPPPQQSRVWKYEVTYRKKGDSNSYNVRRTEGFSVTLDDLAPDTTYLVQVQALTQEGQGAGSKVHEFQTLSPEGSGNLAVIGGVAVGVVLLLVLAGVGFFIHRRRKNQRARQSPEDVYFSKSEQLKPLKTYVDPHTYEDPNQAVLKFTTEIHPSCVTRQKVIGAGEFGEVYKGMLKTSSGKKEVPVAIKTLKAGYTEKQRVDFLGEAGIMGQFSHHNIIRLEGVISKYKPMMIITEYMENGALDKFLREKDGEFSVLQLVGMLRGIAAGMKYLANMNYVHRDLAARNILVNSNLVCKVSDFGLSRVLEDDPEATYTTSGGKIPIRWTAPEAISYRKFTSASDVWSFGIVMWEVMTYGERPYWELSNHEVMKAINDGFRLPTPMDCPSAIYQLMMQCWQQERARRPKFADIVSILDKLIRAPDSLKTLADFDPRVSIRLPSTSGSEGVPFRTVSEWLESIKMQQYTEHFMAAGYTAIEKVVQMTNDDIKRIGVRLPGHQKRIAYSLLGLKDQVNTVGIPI
T1 sequence (P07948 whole entry): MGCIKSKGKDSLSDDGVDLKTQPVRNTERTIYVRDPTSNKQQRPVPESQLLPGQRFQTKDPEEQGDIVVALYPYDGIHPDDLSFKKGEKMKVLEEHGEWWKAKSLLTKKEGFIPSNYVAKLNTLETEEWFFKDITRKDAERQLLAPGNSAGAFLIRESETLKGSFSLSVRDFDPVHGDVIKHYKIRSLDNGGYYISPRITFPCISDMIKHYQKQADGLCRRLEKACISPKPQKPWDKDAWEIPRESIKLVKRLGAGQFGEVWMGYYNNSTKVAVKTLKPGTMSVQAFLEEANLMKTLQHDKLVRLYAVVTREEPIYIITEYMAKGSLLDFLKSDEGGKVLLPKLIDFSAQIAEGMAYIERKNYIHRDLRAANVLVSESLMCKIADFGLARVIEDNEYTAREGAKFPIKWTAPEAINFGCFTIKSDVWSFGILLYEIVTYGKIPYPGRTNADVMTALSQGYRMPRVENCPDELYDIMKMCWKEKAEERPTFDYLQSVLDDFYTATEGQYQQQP

In the case of NVP-BHG712, the IC50 with EphA2 [1] was 3 nM; on LYN it was 13400 nM; on EphA2 [3] (pepsin, n = 3, read-out: IC50 EphA2;K646, peptic analysis) it was 20.5 nM; on EphA2 [3] (trypsin, n = 3, read-out: IC50 EphA2;K646, tryptic analysis), 17 nM; in assay [4] (apparent IC50, lysine 69 in ATP pocket, n = 3, read-out: IC50 GAK;K69), 9400 nM; in assay [4] (apparent IC50, lysine 175 in ATP pocket, n = 3, read-out: IC50 GAK;K175), 13000 nM. In addition, the IC50 at EphB4 is 20 nM and 20.2 nM. In addition, the “Binding to DDR1 in kinobeads profiling” value with DDR1 is “does not bind”. For the same substance, in assay [2], the “Interaction with ATP-binding pocket, SRC;K298 signal across the concentration range” value was “do not interact”.
